The source of these data is patent US20220184019A1, “Use of chlorogenic acid in preparation of drug for preventing and treating ocular inflammation” (SICHUAN JIUZHANG BIOLOGICAL SCIENCE AND TECHNOLOGY CO., LTD, priority 2017, published 2022).

“Also recorded” adds a separate entry of the source. Marks after values point to notes of the source that are not given here.

For assay [1], the system named is experimental autoimmune uveitis (EAU). Kind of assay: Therapeutic effect on IRBP-induced experimental autoimmune uveitis in rats; slit-lamp ocular inflammation score (Caspi clinical grading). Format: in vivo, SD rats. The note with it: 20 mg/kg intraperitoneal; for Scores of ocular inflammation in rats: EAU SD rats.
In assay [2] the test system is scleritis. Briefly: Clinical efficacy on scleritis: inflammation control in one month. The note with it: for Cure / Improved / Ineffective / Total effective rate: scleritis patients, n=10 per group, inflammation control in one month. Format: in vivo, patients. The procedure: (§1) Twenty patients with scleritis were randomly divided into chlorogenic acid test group (10 patients) and control group (10 patients). Patients in chlorogenic acid test group were given chlorogenic acid at a dose of 3 mg/(kg·d) by intramuscular injection. The patients in the control group were given dexamethasone sodium phosphate (5 mg/d) by intravenous injection, and after continuous observation and treatment for 5 days, they initially received oral […] (1 mg/(kg·d)). Both groups were continuously administrated for one month.
(§2) According to the random table, 20 patients with scleritis were randomly divided into two groups, namely chlorogenic acid test group and dexamethasone sodium phosphate control group. Among 10 patients of chlorogenic acid control group, there were one male and 9 females, with an average age of (30.5±5.1) years old and an average course of disease (5.1±0.3). In the dexamethasone sodium phosphate control group, there were one male and 9 females, with an average age of (31.5±4.7) years old and an average course of disease (5.5±0.3). For both groups of patients, there was no statistically significant difference (P>0.05) in the clinical data including age, gender, and disease course, having comparability.
(§3) (1) Inquiring the medical history in detail, performing detailed examinations such as slit lamp examination, fundus examination, ultrasound examination, eye imaging, etc., and making a clear diagnosis of the patient with scleritis; (2) No glucocorticoid and chlorogenic acid contraindications; (3) Patients having non-microbial infectious scleritis; (4) Patients having no obvious abnormalities in blood routine, electrolytes, liver function, kidney function, blood pressure, blood sugar, and so on.
(§4) (1) Patients with microbial infectious scleritis and systemic infectious diseases; (2) Episcleritis; (3) Patients allergic to glucocorticoids or having toxic side effects due to administration of glucocorticoids; (4) Pregnant women and lactating women as well as babies; (5) Patients with moderate hypertension, severe cardiovascular and cerebrovascular diseases, diabetes, as well as liver and kidney function impairment; (6) Patients having poor compliance and refusing regular review and follow-up.
(§5) Patients in chlorogenic acid test group were given chlorogenic acid at a dose of 3 mg/(kg·d) by intramuscular injection. The patients in the control group were given dexamethasone sodium phosphate at 5 mg/day by intravenous infusion, and after continuous observation and treatment for 3 days, they were changed to oral prednison (1 mg/(kg·d)). Both groups were continuously administrated for one month.
(1) Cure: the eye symptoms and signs completely disappeared after treatment; (2) Improved: the eye symptoms and signs improved after treatment; (3) Ineffective: the inflammation was not controlled, or the situation was the same as before treatment.

The test system of assay [3] is scleritis. Kind of assay: Clinical efficacy on scleritis: vision recovery in one month (logarithmic visual acuity chart). Format: in vivo, patients. The note with it: for Ineffective / Total effective rate / Improved / Significantly improved vision: scleritis patients, n=10 per group, vision recovery in one month; for Improved: improving 1-2 lines; for Significantly improved vision: improving 3 lines or more. Here is the method:
as §1, §2, §3, §4, §5
(1) After treatment, the same logarithmic visual acuity chart (the best corrected visual acuity was measured for those with ametropia) was used to detect and record the vision. Significant improvement: improving 3 lines or more; improvement: improving 1-2 lines; ineffective: the vision was not improved or even decreased.

Where [4] appears, read: 3 mg/(kg·d) intramuscular, one month, vs dexamethasone sodium phosphate control, P<0.05.

As for `O=C(/C=C/c1ccc(O)c(O)c1)O[C@@H]1C[C@](O)(C(=O)O)C[C@@H](O)[C@H]1O` [Chlorogenic acid], the “Ocular inflammation (score) compared with the control group at the same time point” value in assay [1] (vs normal saline control, P<0.05) is “significantly reduced; also recorded: significantly lower”. For the same molecule, the “Scores of ocular inflammation in rats” value turned out to be 0.6 ± 0.2 in assay [1] (day 6 after immunization); 0.6 ± 0.2 in assay [1] (day 7 after immunization); 0.7 ± 0.4 in assay [1] (day 8 after immunization); 1.1 ± 0.4 in assay [1] (day 9 after immunization); 1.3 ± 0.6 in assay [1] (day 10 after immunization); 1.9 ± 0.6 in assay [1] (day 11 after immunization). Also, the “Scores of ocular inflammation in rats” value in assay [1] (day 12 after immunization) turned out to be 2.0 ± 0.4; in assay [1] (day 13 after immunization), 1.3 ± 0.6; in assay [1] (day 14 after immunization) it was 1.1 ± 0.3; in assay [1] (day 15 after immunization) it was 0.5 ± 0.3; in assay [1] (day 16 after immunization), 0.4 ± 0.3; in assay [1] (day 17 after immunization), 0.3 ± 0.1. For the same molecule, the “Scores of ocular inflammation in rats” value in assay [1] (day 18 after immunization), in assay [1] (day 19 after immunization) and in assay [1] (day 20 after immunization) was 0.3 ± 0.1 in each case. Moreover, the “Inflammation control effect versus control group” value in the assay with scleritis [2] (setting [4]) was “significantly better than the control group”. Moreover, the Cure with scleritis [2] is recorded as 5 (50%)* cases (%). Further, the Improved in the assay with scleritis [2] was 3 (30%) cases (%); in the assay on scleritis [3], 3 (30%) case (%). Also, the values for the Ineffective in the assay with scleritis [2] and in the assay with scleritis [3] were 2 (20%) cases (%) and 1 (10%) case (%), respectively. Also, the Total effective rate with scleritis [2] is given as 8 (80%)* cases (%); in the assay with scleritis [3], 90 (90%)* case (%). Further, the “Vision recovery versus control group” value in the assay with scleritis [3] (setting [4]) was “significantly better than the control group”. Also, the Significantly improved vision in the assay with scleritis [3] is 6 (60%)* case (%).

In the case of `C[C@@H]1C[C@H]2[C@@H]3CCC4=CC(=O)C=C[C@]4(C)[C@@]3(F)[C@@H](O)C[C@]2(C)[C@@]1(O)C(=O)COP(=O)(O)O` [Control group, dexamethasone sodium phosphate, reference compound], in the assay with scleritis [2], the Cure is on record as 2 (20%) cases (%), the Improved is given as 3 (30%) cases (%), the Ineffective is 5 (50%) cases (%) and the Total effective rate is 5 (50%) cases (%). In the assay on scleritis [3], the Ineffective is listed as 4 (40%) case (%), the Total effective rate is on record as 60 (60%) case (%), the Improved was 3 (30%) case (%) and the Significantly improved vision was 3 (30%) case (%).
